# In patent US20240409549A1, “NEW CRYSTAL FORM AND USE OF NITROGENOUS TRICYCLIC COMPOUND” (SUNSHINE LAKE PHARMA CO., LTD., priority 2021, published 2024):
# Columns and labels:
# [1] = Pharmacokinetic experiment, oral capsules in Beagle dogs; format: in vivo; conditions: male Beagle dogs, 5 mg/kg
# Procedure: The crystal form of the compound having Formula (I) was filled into capsules, which were used for oral administration.
# Three male Beagle dogs weighing 8-12 kg were orally administered with capsules containing the test sample at a dose of 5 mg/kg, and blood samples were taken at time points of 0.25 h, 0.5 h, 1.0 h, 2.0 h, 4.0 h, 6.0 h, 8.0 h and 24 h. Standard curve was plotted based on concentrations of the samples in a suitable range, the concentration of the test sample in the plasma sample was measured and quantified by AB SCIEX API4000 LC-MS/MS at MRM mode. Pharmacokinetic parameters were calculated according to drug concentration -time curve using a noncompartmental method by WinNonLin 6.3 software.
# [2] = Stability experiment: high-temperature test; format: physicochemical; conditions: for Purity (%): HPLC
# Procedure: (1) High-temperature test: A batch of the test sample was taken into a flat weighing bottle, divided into ≤5 mm thick thin layer. The sample was placed at 60° C. for 30 days. The sample was then sampled at day 5, day 13 and day 30, and the change of the sample's color was observed. The purity of the sample was detected by HPLC.
# [3] = Stability experiment: high-humidity test; format: physicochemical; conditions: for Purity (%): HPLC; for Purity (%) / Appearance: High-humidity 25° C., RH 90%±5%
# Procedure: (2) High-humidity test: take a batch of the test sample into the flat weighing bottle, divided into ≤5 mm thick thin layer. The samples were sampled at 25° C. and RH for 90%±5% for 30 days. The samples were sampled at day 5, 13 and day 30, and the sample color was observed. The purity of the sample was determined by HPLC.
# [4] = Stability experiment: photostability (lighting) test; format: physicochemical; conditions: for Purity (%): HPLC; for Purity (%) / Appearance: Lighting, open light box with UV
# Excerpt: (3) Photostability Test: A batch of the test sample was taken into a flat weighing bottle, divided into ≤5 mm thick thin layer. The sample was placed in an opened light box (with UV) at the illuminance […], UV light≥0.7 w/m^2 for 30 days. The sample was then sampled at day 5, day 13 and day 30, and the change of the sample's color was observed. The purity of the sample was detected by HPLC.
# [5] = Hygroscopicity experiment (dynamic vapor sorption); format: physicochemical
# Procedure: The hygroscopicity of the present invention is measured using the DVS INT-Std dynamic moisture and gas adsorption analyzer of the Surface Measurement Systems Company in UK. The humidity test range was 0%-95%, the air flow was 200 mL/min, the temperature was 25° C., test point: take one test point per […] 5% humidity.
# An appropriate amount of the test sample was taken and the hygroscopicity of the test sample was tested by dynamic moisture adsorption device. The description of the hygroscopic characteristics and the definition of the hygroscopic weight gain (Appendix 9103 of Chinese Pharmacopoeia 2020 Edition, Guidelines for Drug Hygroscopicity Tests, experimental conditions: 25° C.±1° C., 80%±2% relative humidity) are described in the table below: […]
# [6] = High-temperature 60° C., day 13
# [7] = High-temperature 60° C., day 30
# [8] = day 0 (start, common to all conditions)
structure (smiles),measurement,setting,value
"O=C(O)c1ccc2c(c1)Oc1ccc(OCc3c(-c4c(Cl)cccc4Cl)noc3C3CC3)nc1C1(CC1)C2 [Crystal form I, 2-((5-cyclopropyl-3-(2,6-dichlorophenyl)isoxazol-4-yl)methoxy)-10H-spiro[benzo[6,7]oxepino[3,2-b]pyridine-11,1′-cyclopropane]-7-carboxylic acid]",AUC(0-t),"[1]; dog, plasma",1020 ng·h/mL
same,Cmax,"[1]; dog, plasma",389 ng/mL
same,Tmax,[1],1.67 h
same,Purity (%),"[2]; High-temperature 60° C., day 5",99.83%
same,Purity (%),[2]; [6],99.91%
same,Purity (%),[2]; [7],99.70%
same,Purity (%),[2]; [8],99.88%
same,Appearance,"[2]; High-temperature 60° C., day 5",White
same,Appearance,[2]; [6],White
same,Appearance,[2]; [7],White
same,Appearance,[2]; [8],White
same,crystal structure stability,[2]; high temperature conditions,remains basically unchanged
same,Purity (%),[3]; day 5,99.81%
same,Purity (%),[3]; day 13,99.70%
same,Purity (%),[3]; day 30,99.82%
same,Appearance,[3]; day 5,White
same,Appearance,[3]; day 13,White
same,Appearance,[3]; day 30,White
same,crystal structure stability,[3]; high humidity conditions,remains basically unchanged
same,Purity (%),[4]; day 5,99.88%
same,Purity (%),[4]; day 13,99.59%
same,Purity (%),[4]; day 30,99.83%
same,Appearance,[4]; day 5,White
same,Appearance,[4]; day 13,White
same,Appearance,[4]; day 30,White
same,crystal structure stability,[4]; lighting conditions,remains basically unchanged
same,hygroscopic weight gain,"[5]; after equilibrium at relative humidity of 80%, 25° C.",less than 0.2%
same,hygroscopic characteristics,"[5]; relative humidity of 80%, criterion of Chinese Pharmacopoeia 2020 Appendix 9103",no or almost no hygroscopicity
